Results published in patent US20100204464A1, “ASCORBIC ACID DERIVATIVES, THEIR PREPARATION METHODS, INTERMEDIATES AND USES IN COSMETICS” (NANJING ZHONGSHI CHEMICAL CO., LTD., priority 2007, published 2010).

How the values were obtained:
[1] = test system: B16F10 murine melanoma cells; test: MTT experiment: multiplication of melanoma cells; assay type: cell-based; conditions: for Multiplication rate of melanoma cell (MTT method, Mean ± SE): 72 h, blank control = 100%; for Concentration at which multiplication of B16F10 cells was significantly inhibited / Concentration with no influence on the multiplication of B16F10 cells: MTT experiment
Procedure: (§1) The effects of preventing melanin from deposition (whitening effects) of 3-O-glycosyl-L-ascorbic acid and 2-O-α-D-glucopyranosyl-L-ascorbic acid (AA-2G) were evaluated by using B16F10 murine melanoma cells. […] The experimental method comprising:
A. MTT experiment: to investigate the influence of each sample on the multiplication of B16F10 murine melanoma cell through cell culture.
All cells were seeded in the 96-well plate respectively at a density of 1*10^4/well, and incubated under 5% CO2 and at 37° C. for 24 h, then the supernatant was removed and to each well was added […] culture medium containing a certain concentration of medicine. Three concentrations, high, middle and low, were set for each medicine, each concentration in quadruplicate wells. For control group, 200 μL culture medium was directly added and incubated for 72 h. 20 μL MTT solution (5 g/L) was added to each well and the sample was incubated under 5% CO2 and at 37° C. for 4 h, then the supernatant was removed and to each well was added 150 μL DMSO. The sample was vibrated for 10 min and the absorbance of each well was measured at a wavelength of 490 nm (reference wavelength: 620 nm) by enzyme-label instrument. Cell multiplication rate=(average absorbance of each concentration of medicine to be screened)/(average absorbance of control group)*100%.

tyrosinase = biological target: T1, tyrosinase (Mus musculus, UniProt P11344); test: Activity of tyrosinase of B16F10 melanoma cells (L-DOPA, absorbance 490 nm); assay type: cell-based, murine; conditions: for Activity of tyrosinase of B16F10 melanoma cell (Mean ± SE): 6 days, control = 100%
T1 construct: endogenous in cells; host or cells: B16F10 murine melanoma cells
T1 sequence (P11344 19-533): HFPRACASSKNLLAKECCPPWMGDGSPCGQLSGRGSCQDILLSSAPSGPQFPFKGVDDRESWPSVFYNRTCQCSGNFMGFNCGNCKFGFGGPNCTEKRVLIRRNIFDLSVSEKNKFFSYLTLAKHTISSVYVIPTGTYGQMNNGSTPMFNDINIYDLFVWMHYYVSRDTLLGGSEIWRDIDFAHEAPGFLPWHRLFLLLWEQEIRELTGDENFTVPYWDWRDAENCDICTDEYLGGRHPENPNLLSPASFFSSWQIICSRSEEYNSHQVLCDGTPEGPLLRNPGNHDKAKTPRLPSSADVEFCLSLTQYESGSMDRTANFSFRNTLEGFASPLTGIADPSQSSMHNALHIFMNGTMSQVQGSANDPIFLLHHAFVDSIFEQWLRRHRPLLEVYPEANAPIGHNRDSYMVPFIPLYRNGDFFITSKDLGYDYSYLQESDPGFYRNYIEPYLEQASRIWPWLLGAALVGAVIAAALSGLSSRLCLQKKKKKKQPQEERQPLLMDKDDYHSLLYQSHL
Procedure: as §1
B. Experiment for determining the activity of tyrosinase: to investigate through cell culture the influence of each sample on the activity of tyrosinase playing an important role in the formation of melanin.
B16F10 cells were seeded in the 96-well plate respectively at a density of 5*10^3/well, and incubated under 5% CO2 and at 37° C. for 24 hour, then the supernatant was removed and to each well was added 100 μL culture medium containing different concentration of medicine to be screened and for blank control group, only culture medium was added. Each group was in quadruplicate and the culture medium was renewed every other day. After being incubated for 6 days, each well was washed by PBS without Ca^2+ and Mg^2+, and then 100 μL Triton-X solution (0.5%) was added to each well. After being vibrated in ultrasound for 30 minutes, 50 μL L-DOPA solution (10 mM/L) was added to each well and the samples was kept at 37° C. for 3 hours. The absorbance of each well was measured at a wavelength of 490 nm (reference wavelength: 620 nm) by enzyme-label instrument. Influence rate of the activity of tyrosinase=(average absorbance of the group of medicine to be screened)/(average absorbance of control group)*100%

B16F10 cells [2] = test: Quantitative analysis of the content of melanin of B16F10 cells; assay type: cell-based, murine; conditions: for Content of melanin of B16F10 cells (Mean ± SE): 6 days, blank control = 100%
Procedure: as §1
D. Quantitative analysis of the content of melanin.
B16F10 cells were seeded in φ 60 mm culture mediums, and incubated under 5% CO2 and at 37° C. for 24 h, then the supernatant was removed and to each medium was added culture medium containing different concentration of medicine and for control group, only culture medium was added. Each group was in triplicate and the culture medium was renewed every other day. After being incubated for 6 days, the cells were digested by 0.25% trypsin/EDTA and collected, then washed by PBS twice. The cells of each group were counted and 0.2 mL redistilled water was added to make the cells suspended for 1 min respectively, then the mixture of 500 μL ethanol and 500 μL ether was added. The cells were placed at room temperature for 15 min and centrifuged at a rate of 3000 rpm for 5 min, then the supernatant was removed and 1 ml NaOH (1 mol/L, containing 10% DMSO) was added to the precipitate. After being placed at 80° C. for 30 min, 4 mL redistilled water was added to dilute the concentration of NaOH to 0.2 mol/L. The absorbance of each group was measured at a wavelength of 475 nm (reference wavelength: 620 nm) by spectrophotometer. The content of melanin=[(absorbance of the group of medicine to be screened/average amount of cells)/(average absorbance of control group/average amount of cells)]*100%

[3] = Stability of aqueous solutions stored 3 months, content by HPLC and color; assay type: physicochemical; conditions: for Color, in words / Content (HPLC), in words: 10%, 5% and 1.0% aqueous solutions; for Content (HPLC): initial content 98%
Procedure: In the comparative experiment of stability between 3-O-lactosyl-L-ascorbic acid and 2-O-α-D-glucopyranosyl-L-ascorbic acid (AA-2G), both compounds were prepared as 10%, 5% and 1.0% aqueous solutions respectively and were placed at 0° C., 25° C. and […] respectively for 3 months.

B16F10 cells [4] = test: DOPA staining of B16F10 cells (qualitative melanin/tyrosinase); assay type: cell-based, murine; conditions: 6 days, 0.5% L-DOPA, photos under microscope
Procedure: as §1
Each group was in quadruplicate and the culture medium was renewed every other day.

OC[C@H]1O[C@@H](Oc2ccc(O)cc2)[C@H](O)[C@@H](O)[C@@H]1O [Arbutin]
Multiplication rate of melanoma cell (MTT method, Mean ± SE) ([1]; 1.0 mM): 113.57 ± 5.57%
Multiplication rate of melanoma cell (MTT method, Mean ± SE) ([1]; 5.0 mM): 102.94 ± 3.64%
Multiplication rate of melanoma cell (MTT method, Mean ± SE) ([1]; 10.0 mM): 76.94 ± 6.08%
Multiplication rate of melanoma cell (MTT method, Mean ± SE) ([1]; 20.0 mM): 46.15 ± 3.41 %
Activity of tyrosinase of B16F10 melanoma cell (Mean ± SE) (tyrosinase; 1.0 mM): 50.02 ± 4.04 %
Activity of tyrosinase of B16F10 melanoma cell (Mean ± SE) (tyrosinase; 2.5 mM): 38.07 ± 1.78 %
Activity of tyrosinase of B16F10 melanoma cell (Mean ± SE) (tyrosinase; 5.0 mM): 20.53 ± 1.02 %
Content of melanin of B16F10 cells (Mean ± SE) (B16F10 cells [2]; 1.0 mM): 50.12 ± 1.97 %
Content of melanin of B16F10 cells (Mean ± SE) (B16F10 cells [2]; 2.5 mM): 36.61 ± 2.15 %
Content of melanin of B16F10 cells (Mean ± SE) (B16F10 cells [2]; 5.0 mM): 20.53 ± 1.02 %

O=c1cc(CO)occ1O [Kojic acid]
Multiplication rate of melanoma cell (MTT method, Mean ± SE) ([1]; 1.0 mM): 92.20 ± 8.28%
Multiplication rate of melanoma cell (MTT method, Mean ± SE) ([1]; 5.0 mM): 63.23 ± 3.66%
Multiplication rate of melanoma cell (MTT method, Mean ± SE) ([1]; 10.0 mM): 43.10 ± 2.31 %
Multiplication rate of melanoma cell (MTT method, Mean ± SE) ([1]; 20.0 mM): 43.55 ± 7.36 %
Content of melanin of B16F10 cells (Mean ± SE) (B16F10 cells [2]; 1.0 mM): 37.20 ± 4.33 %
Content of melanin of B16F10 cells (Mean ± SE) (B16F10 cells [2]; 2.5 mM): 24.15 ± 1.88 %
Content of melanin of B16F10 cells (Mean ± SE) (B16F10 cells [2]; 5.0 mM): 17.65 ± 1.42 %

O=C1O[C@H]([C@@H](O)CO)C(O)=C1O[C@H]1O[C@H](CO)[C@@H](O)[C@H](O)[C@H]1O [VC derivative 1, 2-O-α-D-glucopyranosyl-L-ascorbic acid]
Color, in words ([3]; 0° C.): colorless
Content (HPLC), in words ([3]; 0° C.): almost unchanged
Color, in words ([3]; 25° C. and 45° C.): obviously yellow
Content (HPLC), in words ([3]; 25° C. and 45° C.): decreased
Multiplication rate of melanoma cell (MTT method, Mean ± SE) ([1]; 1.0 mM): 108.66 ± 9.32%
Multiplication rate of melanoma cell (MTT method, Mean ± SE) ([1]; 5.0 mM): 100.98 ± 14.79%
Multiplication rate of melanoma cell (MTT method, Mean ± SE) ([1]; 10.0 mM): 43.21 ± 7.40 %
Multiplication rate of melanoma cell (MTT method, Mean ± SE) ([1]; 20.0 mM): 8.17 ± 0.46 %
Concentration at which multiplication of B16F10 cells was significantly inhibited [1]: ≥ 5.0 mM
Concentration with no influence on the multiplication of B16F10 cells [1]: lower than 5.0 mM
Activity of tyrosinase of B16F10 melanoma cell (Mean ± SE) (tyrosinase; 1.0 mM): 95.99 ± 2.01%
Activity of tyrosinase of B16F10 melanoma cell (Mean ± SE) (tyrosinase; 2.5 mM): 92.40 ± 0.94%
Activity of tyrosinase of B16F10 melanoma cell (Mean ± SE) (tyrosinase; 5.0 mM): 69.90 ± 1.733 %
Inhibiting effect on the activity of tyrosinase (tyrosinase; rather weaker than 3-O-lactosyl-L-ascorbic acid): a certain inhibiting effect
Effect of inhibiting the synthesis of melanin (B16F10 cells [2]): relatively weak
Content of melanin of B16F10 cells (Mean ± SE) (B16F10 cells [2]; 1.0 mM): 96.37 ± 3.63%
Content of melanin of B16F10 cells (Mean ± SE) (B16F10 cells [2]; 2.5 mM): 91.11 ± 1.82%
Content of melanin of B16F10 cells (Mean ± SE) (B16F10 cells [2]; 5.0 mM): 84.19 ± 1.85%

O=C1O[C@H]([C@@H](O)CO)C(OC2O[C@H](CO)[C@@H](O[C@@H]3O[C@H](CO)[C@H](O)[C@H](O)[C@H]3O)[C@H](O)[C@H]2O)=C1O (stereo partly drawn) [VC derivative 2, 3-O-(D-lactosyl)-L-ascorbic acid]
Color ([3]; 1% aqueous solution, 0 °C): Colorless
Content (HPLC) ([3]; 1% aqueous solution, 0 °C): 98%
Color ([3]; 1% aqueous solution, 25 °C): Colorless
Content (HPLC) ([3]; 1% aqueous solution, 25 °C): 98%
Color ([3]; 1% aqueous solution, 45 °C): Slight
Content (HPLC) ([3]; 1% aqueous solution, 45 °C): 96%
Color ([3]; 5% aqueous solution, 0 °C): Colorless
Content (HPLC) ([3]; 5% aqueous solution, 0 °C): 98%
Color ([3]; 5% aqueous solution, 25 °C): Colorless
Content (HPLC) ([3]; 5% aqueous solution, 25 °C): 98%
Color ([3]; 5% aqueous solution, 45 °C): Slight
Content (HPLC) ([3]; 5% aqueous solution, 45 °C): 96%
Color ([3]; 10% aqueous solution, 0 °C): Colorless
Content (HPLC) ([3]; 10% aqueous solution, 0 °C): 98%
Color ([3]; 10% aqueous solution, 25 °C): Colorless
Content (HPLC) ([3]; 10% aqueous solution, 25 °C): 98%
Color ([3]; 10% aqueous solution, 45 °C): Slight
Content (HPLC) ([3]; 10% aqueous solution, 45 °C): 94%
Color, in words ([3]; 0° C.): colorless
Content (HPLC), in words ([3]; 0° C.): almost unchanged
Color, in words ([3]; 25° C. and 45° C.): colorless
Content (HPLC), in words ([3]; 25° C. and 45° C.): changed little
Multiplication rate of melanoma cell (MTT method, Mean ± SE) ([1]; 1.0 mM): 72.67 ± 10.59%
Multiplication rate of melanoma cell (MTT method, Mean ± SE) ([1]; 5.0 mM): 79.34 ± 3.99%
Multiplication rate of melanoma cell (MTT method, Mean ± SE) ([1]; 10.0 mM): 76.56 ± 7.67%
Multiplication rate of melanoma cell (MTT method, Mean ± SE) ([1]; 20.0 mM): 66.67 ± 5.48 %
Concentration at which multiplication of B16F10 cells was significantly inhibited [1]: ≥ 10.0 mM
Concentration with no influence on the multiplication of B16F10 cells [1]: lower than 10.0 mM
Activity of tyrosinase of B16F10 melanoma cell (Mean ± SE) (tyrosinase; 1.0 mM): 51.01 ± 2.71 %
Activity of tyrosinase of B16F10 melanoma cell (Mean ± SE) (tyrosinase; 2.5 mM): 36.19 ± 2.98 %
Activity of tyrosinase of B16F10 melanoma cell (Mean ± SE) (tyrosinase; 5.0 mM): 20.68 ± 1.34 %
Inhibition of tyrosinase activity compared with kojic acid (tyrosinase; high concentration group (5.0 mM)): no statistical difference
Inhibition of the activity of tyrosinase (tyrosinase; high, middle and low concentrations (5.0 mM, 2.5 mM and 1.0 mM)): significantly inhibited
Inhibition of tyrosinase activity compared with kojic acid (tyrosinase; middle and low concentration groups (2.5 mM, 1.0 mM)): weaker
Inhibition of tyrosinase activity compared with arbutin (tyrosinase; three concentration groups (5.0, 2.5, 1.0 mM)): no statistical difference
Degree of DOPA staining compared with blank control group (B16F10 cells [4]): lower degree of staining
Content of melanin of B16F10 cells (Mean ± SE) (B16F10 cells [2]; 1.0 mM): 51.01 ± 2.71 %
Content of melanin of B16F10 cells (Mean ± SE) (B16F10 cells [2]; 2.5 mM): 30.08 ± 3.77 %
Content of melanin of B16F10 cells (Mean ± SE) (B16F10 cells [2]; 5.0 mM): 22.24 ± 1.80 %
Inhibiting melanin synthesis compared with kojic acid and arbutin (B16F10 cells [2]; at the same concentration): no statistical difference
